Legend:
[1] = test system: MDA-MB-231; assay: Antiproliferative activity against human MDA-MB-231 cells after 24 hrs by MTT assay; type: functional, cell-based; conditions: MDA-MB-231, 24 h
[2] = test system: MCF7; assay: Antiproliferative activity against human MCF7 cells after 24 hrs by MTT assay; type: functional, cell-based; conditions: MCF7, 24 h
[3] = test system: MCF7; assay: Potency index, ratio of tamoxifen IC50 to compound IC50 for antiproliferative activity against human MCF7 cells; type: functional
[4] = test system: MDA-MB-231; assay: Potency index, ratio of tamoxifen IC50 to compound IC50 for antiproliferative activity against human MDA-MB-231 cells; type: functional

Compound | IC50 [1] | IC50 [2] | Ratio IC50 [3] | Ratio IC50 [4]
CSc1nnc(COc2cc(C)c3c(C)cc(=O)oc3c2)o1 | > 100 µM | > 100 µM |  | 
CCCCCCSc1nnc(COc2cc(C)c3c(C)cc(=O)oc3c2)o1 | > 100 µM | > 100 µM |  | 
Cc1cc(OCc2nnc(S(=O)(=O)Cc3ccc(F)c(F)c3)o2)cc2oc(=O)cc(C)c12 | 31.6 µM | 55.2 µM |  | 
Cc1cc(OCc2nnc(SCc3ccc(Cl)cc3Cl)o2)cc2oc(=O)cc(C)c12 | > 100 µM | < 5 µM | 1.4 | 
CCCCCCS(=O)(=O)c1nnc(COc2cc(C)c3c(C)cc(=O)oc3c2)o1 | > 100 µM | > 100 µM |  | 
Cc1cc(OCc2nnc(SCc3cccc(F)c3)o2)cc2oc(=O)cc(C)c12 | > 100 µM | 26 µM |  | 
Cc1cc(OCc2nnc(S(=O)(=O)Cc3cccc(F)c3)o2)cc2oc(=O)cc(C)c12 | 21.3 µM | 70.4 µM |  | 
CCSc1nnc(COc2cc(C)c3c(C)cc(=O)oc3c2)o1 | > 100 µM | > 100 µM |  | 
CCCCSc1nnc(COc2cc(C)c3c(C)cc(=O)oc3c2)o1 | > 100 µM | > 100 µM |  | 
Cc1cc(OCc2nnc(SCc3ccccc3)o2)cc2oc(=O)cc(C)c12 | > 100 µM | > 100 µM |  | 
CCS(=O)(=O)c1nnc(COc2cc(C)c3c(C)cc(=O)oc3c2)o1 | > 100 µM | > 100 µM |  | 
CCCS(=O)(=O)c1nnc(COc2cc(C)c3c(C)cc(=O)oc3c2)o1 | 7.07 µM | > 100 µM |  | 7
Cc1cc(OCc2nnc(SCc3ccc(F)c(F)c3)o2)cc2oc(=O)cc(C)c12 | > 100 µM | 33.3 µM |  | 
Cc1cc(OCc2nnc(S(=O)(=O)Cc3ccccc3)o2)cc2oc(=O)cc(C)c12 | 7.07 µM | 38.6 µM |  | 7
CCCSc1nnc(COc2cc(C)c3c(C)cc(=O)oc3c2)o1 | > 100 µM | > 100 µM |  | 
CCCCCSc1nnc(COc2cc(C)c3c(C)cc(=O)oc3c2)o1 | > 100 µM | > 100 µM |  | 
CC/C(=C(\c1ccccc1)c1ccc(OCCN(C)C)cc1)c1ccccc1 [TAMOXIFEN] | 47.1 µM | 7.09 µM |  | 

Reference: ChEMBL document CHEMBL4261623, “Synthesis, computational studies and antiproliferative activities of coumarin-tagged 1,3,4-oxadiazole conjugates against MDA-MB-231 and MCF-7 human breast cancer cells” (Bioorg Med Chem, 2018)
